# Results published in patent publication US10745693B2, “Methods of designing programmable inducible promoters” (WISCONSIN ALUMNI RESEARCH FOUNDATION, priority 2017, dated 2020).
# Test system: PmeR
# Assay: Induction assay of PmeR-enriched promoter library driving GFP in E. coli DH10B (flow cytometer)
# Type: cell-based, Pseudomonas syringae
# Conditions: 300 uM naringenin, over-night growth, E. coli DH10B population repressed by PmeR
# Excerpt: In this example, the allosteric transcription factor was PmeR (repressor) and the inducer molecule was naringenin.
# The post in vitro enrichment of polynucleotides (with PmeR protein) was cloned into a vector to drive the expression of a green fluorescent protein using the Golden Gate assembly method. Following the transformation and over-night growth in E. coli DH10B, the fluorescent intensity distribution was profiled using a flow cytometer with 488 nm laser and 510 (25) nm filter. The delivery of the transcription repressor was through a second vector containing constitutively expressing PmeR protein. The fluorescent intensity distribution shift was captured with a flow cytometer after over-night growth. A decrease of overall fluorescent intensity was observed. The induction assay was conducted with the addition of 300 uM naringenin to the previous E. coli population with decreased fluorescence.
structure (smiles),measurement,value
O=C1C[C@@H](c2ccc(O)cc2)Oc2cc(O)cc(O)c21 [naringenin],Change of fluorescent intensity distribution on induction,overall increase in fluorescent intensity
